Reference: PubChem BioAssay AID1745844 (Carcinogenic Potency Database (CPDB), 2022)
“And” between values parts separate entries of the source, which are not always exact repeats. Equal values may be shown once. The source made the active and inactive calls. How the calls were made is not given here.

Tested on: rodent lifetime carcinogenesis bioassay, tumor incidence TD50
Assay: carcinogenic potency in animals, long-term in vivo studies, CPDB compilation (AID 1745844)

## CCn1c2ccccc2c2cc(N)ccc21
mouse, strain B6C3F1, females, in feed, site: any site (literature study), lesion: several types, types named in the paper, dosed 78 weeks, study length 95 weeks
  TD50: 41.8 mg/kg/day
mouse, strain B6C3F1, females, in feed, site: liver, lesion: hepatocellular adenoma + hepatocellular carcinoma + neoplastic nodule, dosed 78 weeks, study length 95 weeks
  TD50: 33 mg/kg/day
mouse, strain B6C3F1, females, in feed, site: liver, lesion: hepatocellular carcinoma, dosed 78 weeks, study length 95 weeks
  TD50: 33 mg/kg/day
mouse, strain B6C3F1, females, in feed, site: lung, lesion: alveolar/bronchiolar adenoma + alveolar/bronchiolar carcinoma, dosed 78 weeks, study length 95 weeks
  TD50: 1780 mg/kg/day
mouse, strain B6C3F1, males, in feed, site: any site (literature study), lesion: several types, types named in the paper, dosed 78 weeks, study length 95 weeks
  TD50: 70.6 mg/kg/day
mouse, strain B6C3F1, males, in feed, site: liver, lesion: hepatocellular adenoma + hepatocellular carcinoma + neoplastic nodule, dosed 78 weeks, study length 95 weeks
  TD50: 49.8 mg/kg/day
mouse, strain B6C3F1, males, in feed, site: liver, lesion: hepatocellular adenoma + hepatocellular carcinoma, dosed 78 weeks, study length 95 weeks
  TD50: 49.8 mg/kg/day
mouse, strain B6C3F1, males, in feed, site: liver, lesion: hepatocellular carcinoma, dosed 78 weeks, study length 95 weeks
  TD50: 46.4 mg/kg/day
rat, strain Fischer 344, females, in feed, site: Zymbal's gland, lesion: carcinoma, NOS + squamous-cell carcinoma, dosed 78 weeks, study length 107 weeks
  TD50: 151 mg/kg/day
rat, strain Fischer 344, females, in feed, site: Zymbal's gland, lesion: squamous-cell carcinoma, dosed 78 weeks, study length 107 weeks
  TD50: 212 mg/kg/day
rat, strain Fischer 344, females, in feed, site: any site (literature study), lesion: several types, types named in the paper, dosed 78 weeks, study length 107 weeks
  TD50: 44.7 mg/kg/day
rat, strain Fischer 344, females, in feed, site: liver + uterus + Zymbal's gland, lesion: hepatocellular carcinoma + neoplastic nodule + adenocarcinoma, NOS + carcinoma, NOS + squamous-cell carcinoma, dosed 78 weeks, study length 107 weeks
  TD50: 55.1 mg/kg/day
rat, strain Fischer 344, females, in feed, site: liver, lesion: hepatocellular adenoma + hepatocellular carcinoma + neoplastic nodule, dosed 78 weeks, study length 107 weeks
  TD50: 237 mg/kg/day
rat, strain Fischer 344, females, in feed, site: liver, lesion: hepatocellular carcinoma + neoplastic nodule, dosed 78 weeks, study length 107 weeks
  TD50: 237 mg/kg/day
rat, strain Fischer 344, females, in feed, site: uterus, lesion: adenocarcinoma, NOS, dosed 78 weeks, study length 107 weeks
  TD50: 106 mg/kg/day
rat, strain Fischer 344, males, in feed, site: Zymbal's gland, lesion: carcinoma, NOS + squamous-cell carcinoma, dosed 78 weeks, study length 106 weeks
  TD50: 240 mg/kg/day
rat, strain Fischer 344, males, in feed, site: any site (literature study), lesion: several types, types named in the paper, dosed 78 weeks, study length 106 weeks
  TD50: 42.7 mg/kg/day
rat, strain Fischer 344, males, in feed, site: liver + skin + subcutaneous tissue + Zymbal's gland, lesion: hepatocellular carcinoma + neoplastic nodule + basal-cell carcinoma + squamous-cell carcinoma + squamous-cell papilloma + carcinom, dosed 78 weeks, study length 106 weeks
  TD50: 28.1 mg/kg/day
rat, strain Fischer 344, males, in feed, site: liver, lesion: hepatocellular adenoma + hepatocellular carcinoma + neoplastic nodule, dosed 78 weeks, study length 106 weeks
  TD50: 39.2 mg/kg/day
rat, strain Fischer 344, males, in feed, site: liver, lesion: hepatocellular carcinoma + neoplastic nodule, dosed 78 weeks, study length 106 weeks
  TD50: 39.2 mg/kg/day
rat, strain Fischer 344, males, in feed, site: liver, lesion: hepatocellular carcinoma, dosed 78 weeks, study length 106 weeks
  TD50: 156 mg/kg/day
rat, strain Fischer 344, males, in feed, site: skin + subcutaneous tissue, lesion: basal-cell carcinoma + squamous-cell carcinoma + squamous-cell papilloma, dosed 78 weeks, study length 106 weeks
  TD50: 203 mg/kg/day
rat, strain Fischer 344, males, in feed, site: skin + subcutaneous tissue, lesion: squamous-cell carcinoma + squamous-cell papilloma, dosed 78 weeks, study length 106 weeks
  TD50: 257 mg/kg/day

## ClCC=CCCl
rat, strain Charles River CD (Sprague-Dawley), females, inhaled, site: nasal cavity, lesion: adenoma, dosed 51 weeks, study length 104 weeks
  TD50: 13 mg/kg/day
rat, strain Charles River CD (Sprague-Dawley), females, inhaled, site: nasal cavity, lesion: adenoma, dosed 104 weeks, study length 104 weeks
  TD50: 0.695 mg/kg/day
rat, strain Charles River CD (Sprague-Dawley), females, inhaled, site: nasal cavity, lesion: malignant tumor, dosed 51 weeks, study length 104 weeks
  TD50: 0.242 mg/kg/day
rat, strain Charles River CD (Sprague-Dawley), females, inhaled, site: nasal cavity, lesion: malignant tumor, dosed 104 weeks, study length 104 weeks
  TD50: 8.32 mg/kg/day
rat, strain Charles River CD (Sprague-Dawley), males, inhaled, site: nasal cavity, olfactory epithelium, lesion: adenocarcinoma, dosed 82 weeks, study length 104 weeks
  TD50: 2 mg/kg/day
rat, strain Charles River CD (Sprague-Dawley), males, inhaled, site: nasal cavity, olfactory epithelium, lesion: carcinoma, dosed 82 weeks, study length 104 weeks
  TD50: 8.88 mg/kg/day
rat, strain Charles River CD (Sprague-Dawley), males, inhaled, site: nasal cavity, olfactory epithelium, lesion: carcinosarcoma, dosed 82 weeks, study length 104 weeks
  TD50: 8.88 mg/kg/day
rat, strain Charles River CD (Sprague-Dawley), males, inhaled, site: nasal cavity, olfactory epithelium, lesion: malignant tumor, dosed 82 weeks, study length 104 weeks
  TD50: 1.27 mg/kg/day
rat, strain Charles River CD (Sprague-Dawley), males, inhaled, site: nasal cavity, respiratory epithelium, lesion: adenoma, dosed 82 weeks, study length 104 weeks
  TD50: 0.653 mg/kg/day
rat, strain Charles River CD (Sprague-Dawley), males, inhaled, site: nasal cavity, lesion: adenoma, dosed 51 weeks, study length 104 weeks
  TD50: 23.2 mg/kg/day
rat, strain Charles River CD (Sprague-Dawley), males, inhaled, site: nasal cavity, lesion: adenoma, dosed 104 weeks, study length 104 weeks
  TD50: 0.313 mg/kg/day
rat, strain Charles River CD (Sprague-Dawley), males, inhaled, site: nasal cavity, lesion: malignant tumor, dosed 51 weeks, study length 104 weeks
  TD50: 0.169 mg/kg/day
rat, strain Charles River CD (Sprague-Dawley), males, inhaled, site: nasal cavity, lesion: malignant tumor, dosed 104 weeks, study length 104 weeks
  TD50: 1.04 mg/kg/day
rat, strain Charles River CD (Sprague-Dawley), males, inhaled, site: nasal cavity, lesion: several types, types named in the paper, dosed 82 weeks, study length 104 weeks
  TD50: 0.467 mg/kg/day

## CC[N+]([O-])=NC
rat, strain Fischer 344, males, in drinking water, site: colon, lesion: several types, types named in the paper, dosed 30 weeks, study length 55 weeks
  TD50: 0.125 mg/kg/day
rat, strain Fischer 344, males, in drinking water, site: ileum, lesion: one or several types, types not named, dosed 30 weeks, study length 55 weeks
  TD50: 0.221 mg/kg/day
rat, strain Fischer 344, males, in drinking water, site: liver, lesion: hemangiosarcoma, dosed 30 weeks, study length 55 weeks
  TD50: 0.0391 mg/kg/day
rat, strain Fischer 344, males, in drinking water, site: liver, lesion: hepatocellular carcinoma, dosed 30 weeks, study length 55 weeks
  TD50: 0.0189 mg/kg/day
rat, strain Fischer 344, males, in drinking water, site: liver, lesion: neurosarcoma, dosed 30 weeks, study length 55 weeks
  TD50: 0.0832 mg/kg/day
rat, strain Fischer 344, males, in drinking water, site: liver, lesion: several types, types named in the paper, dosed 30 weeks, study length 55 weeks
  carcinogen call: positive

## CN(C)CCN(Cc1ccsc1)c1ccccn1
rat, strain Fischer 344, females, in drinking water, site: liver, lesion: several types, types named in the paper, dosed 80 weeks, study length 130 weeks
  carcinogen call: negative (inactive)
rat, strain Fischer 344, females, in drinking water, site: thyroid follicle, lesion: several types, types named in the paper, dosed 80 weeks, study length 130 weeks
  TD50: 10700 mg/kg/day (inactive)
rat, strain Fischer 344, males, in drinking water, site: liver, lesion: several types, types named in the paper, dosed 80 weeks, study length 130 weeks
  TD50: 96.8 mg/kg/day (inactive)
rat, strain Fischer 344, males, in drinking water, site: thyroid follicle, lesion: several types, types named in the paper, dosed 80 weeks, study length 130 weeks
  carcinogen call: negative (inactive)

## Cc1cc(C)c(N=Nc2c(O)c(S(=O)(=O)O)cc3cc(S(=O)(=O)O)ccc23)cc1C
rat, strain Bethesda black, both sexes, in feed, site: liver, lesion: carcinoma, dosed 104 weeks, study length 104 weeks
  TD50: 2480 mg/kg/day
rat, strain Bethesda black, both sexes, in feed, site: liver, lesion: hepatocellular tumor, benign, dosed 104 weeks, study length 104 weeks
  TD50: 3540 mg/kg/day
rat, strain Bethesda black, both sexes, in feed, site: liver, lesion: nodular hyperplasia, dosed 104 weeks, study length 104 weeks
  TD50: 3040 mg/kg/day
rat, strain Bethesda black, both sexes, in feed, site: liver, lesion: several types, types named in the paper, dosed 104 weeks, study length 104 weeks
  TD50: 746 mg/kg/day
rat, strain Not specified, females, in feed, site: bile duct, lesion: adenoma, dosed 65 weeks, study length 65 weeks
  TD50: 1570 mg/kg/day
rat, strain Not specified, females, in feed, site: liver, lesion: carcinoma, dosed 65 weeks, study length 65 weeks
  TD50: 1990 mg/kg/day
rat, strain Not specified, males, in feed, site: bile duct, lesion: adenoma, dosed 65 weeks, study length 65 weeks
  TD50: 755 mg/kg/day
rat, strain Not specified, males, in feed, site: liver, lesion: carcinoma, dosed 65 weeks, study length 65 weeks
  TD50: 1240 mg/kg/day
rat, strain Osborne-Mendel, both sexes, in feed, site: any site (literature study), lesion: malignant tumor, dosed 104 weeks, study length 104 weeks
  TD50: 12900 mg/kg/day
rat, strain Osborne-Mendel, both sexes, in feed, site: liver, lesion: carcinoma, dosed 104 weeks, study length 104 weeks
  TD50: 7540 mg/kg/day
rat, strain Osborne-Mendel, both sexes, in feed, site: liver, lesion: hepatocellular tumor, benign, dosed 104 weeks, study length 104 weeks
  TD50: 909 mg/kg/day
rat, strain Osborne-Mendel, both sexes, in feed, site: liver, lesion: nodular hyperplasia, dosed 104 weeks, study length 104 weeks
  TD50: 639 mg/kg/day
rat, strain Wistar, both sexes, in feed, site: liver, lesion: one or several types, types not named, dosed 65 weeks, study length 65 weeks
  TD50: 225 mg/kg/day and 394 mg/kg/day
rat, strain Wistar, both sexes, in feed, site: liver, lesion: one or several types, types not named, dosed 70 weeks, study length 70 weeks
  TD50: 314 mg/kg/day and 420 mg/kg/day
